Experimental data from patent US20060004197A1, “Sulfonamide-based compounds as protein tyrosine kinase inhibitors” (priority 2004, published 2006).

target: T1, Recombinant human Src (Homo sapiens, UniProt P12931); experiment: Src tyrosine kinase activity, poly E4Y / 32P-ATP phosphorylation assay; type: biochemical; conditions: Table 2, Formula I compounds; NI = no inhibition at 100 μg/mL
T1 construct: made in house; host or cells: baculovirus-insect cell system
Method: Recombinant human Src was expressed using the baculovirus-insect cell system and purified as published (Budde et al., 1993 and 2000).
The tyrosine kinase activity of Src, Csk and FGFr was determined using poly E4Y and ^32P-ATP. Briefly, enzymes were assayed in a reaction mixture consisting of 0.15 M EPPS-NaOH (pH 8.0) with 6 mM MgCl2, 0.2 mM γ^32P-ATP (0.2-0.4 mCi/μmol), 10% glycerol, 0.1% Triton X-100, and poly E4Y. Poly E4Y is a synthetic peptide whose phosphorylation is measured in this assay by the addition of the radioactively labeled phosphate from the ATP (Budde et al., 1995). […] When ATP was varied (0, 50, 100 and 250 μM), poly E4Y was kept constant at 150 μg/ml.

T1 sequence (P12931 whole entry): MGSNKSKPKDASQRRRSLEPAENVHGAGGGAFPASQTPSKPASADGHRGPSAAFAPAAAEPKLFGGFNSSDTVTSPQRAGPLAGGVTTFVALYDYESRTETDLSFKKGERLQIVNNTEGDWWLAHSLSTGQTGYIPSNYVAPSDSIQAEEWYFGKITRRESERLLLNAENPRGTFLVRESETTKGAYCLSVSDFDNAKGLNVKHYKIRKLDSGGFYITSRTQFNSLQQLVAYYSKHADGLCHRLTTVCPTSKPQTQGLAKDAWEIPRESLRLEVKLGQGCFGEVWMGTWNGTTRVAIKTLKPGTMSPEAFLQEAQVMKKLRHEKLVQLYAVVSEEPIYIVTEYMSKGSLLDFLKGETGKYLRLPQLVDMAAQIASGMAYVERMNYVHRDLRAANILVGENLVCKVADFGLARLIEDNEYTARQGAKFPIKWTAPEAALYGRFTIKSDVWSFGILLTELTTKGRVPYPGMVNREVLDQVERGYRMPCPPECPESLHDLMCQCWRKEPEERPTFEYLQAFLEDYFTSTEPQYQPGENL

Work on `Cc1ccc(S(=O)(=O)Nc2cc(NCc3ccccc3Cl)c([N+](=O)[O-])cc2NS(=O)(=O)c2ccc(C)cc2)cc1` [Compound 9g, N-[4-(2-chloro-benzylamino)-5-nitro-2-(4-toluenesulfonylamino)-phenyl]-4-toluenesulfonamide] yielded an IC50 of 54 µM.

same assay, conditions: Table 2; compound at 15 ug/mL; read-out: % Inhibition at 15 ug/mL Src (%)

Point of comparison: `Cc1ccc(S(=O)(=O)Nc2cc(NCc3ccccc3Cl)c([N+](=O)[O-])cc2NS(=O)(=O)c2ccc(C)cc2)cc1` [Compound 9g, N-[4-(2-chloro-benzylamino)-5-nitro-2-(4-toluenesulfonylamino)-phenyl]-4-toluenesulfonamide], inhibition at 15 µg/mL 65%. Against it:
- Cc1ccc(S(=O)(=O)Nc2cc(NCCCc3cn[nH]c3C)c([N+](=O)[O-])cc2NS(=O)(=O)c2ccc(C)cc2)cc1 [Compound 9k, N-[4-[3-(5-methyl-1H-pyrazol-4-yl)-propylamino]-5-nitro-2-(4-toluenesulfonylamino)-phenyl]-4-toluenesulfonamide] — lower, 13%
- Cc1ccc(S(=O)(=O)Nc2cc(NCc3ccccn3)c([N+](=O)[O-])cc2NS(=O)(=O)c2ccc(C)cc2)cc1 [Compound 9e, N-[5-nitro-4-[(pyridin-2-ylmethyl)-amino]-2-(4-toluenesulfonylamino)-phenyl]-4-toluenesulfonamide] — lower, 15%
- Cc1ccc(S(=O)(=O)Nc2cc(N3CCSCC3)c([N+](=O)[O-])cc2NS(=O)(=O)c2ccc(C)cc2)cc1 [Compound 9c, N-[5-nitro-4-(thiomorpholin-4-yl)-2-(4-toluenesulfonylamino)-phenyl]-4-toluenesulfonamide] — lower, 15%

same assay, conditions: Table 3, Formula II compounds; NI = no inhibition at 100 μg/mL

Point of comparison: `COc1ccc(Oc2ccc(NS(=O)(=O)c3ccc(C)cc3)c(NS(=O)(=O)CCc3cccc4ccccc34)c2)cc1` [Compound 22ee, N-[4-(4-methoxy-phenoxy)-2-(2-naphthalen-1-yl-ethanesulfonylamino)-phenyl]-4-toluenesulfonamide], IC50 50 µM. Against it:
- COc1ccc(Oc2ccc(NS(=O)(=O)c3ccc(Br)s3)c(NS(=O)(=O)c3ccc(C)cc3)c2)cc1 [Compound 22bb, N-[4-(4-methoxy-phenoxy)-2-(4-toluenesulfonylamino)-phenyl]-5-bromo-thiophene-2-sulfonamide] — 2.6-fold lower, 19.5 µM
- Cc1ccc(S(=O)(=O)Nc2ccc(C(=O)NC(C)(C)C)cc2NS(=O)(=O)c2ccc(C)cc2)cc1 [Compound 22c, N-t-butyl-3,4-bis-(4-toluenesulfonylamino)-benzamide] — 6-fold higher, 300 µM
- C=CCc1c(OCc2ccc(OC)cc2)ccc(NS(=O)(=O)c2ccc(C)cc2)c1NS(=O)(=O)c1ccc(C)cc1 [Compound 15a, N-[3-allyl-4-(4-methoxy-benzyloxy)-2-(4-toluenesulfonylamino)-phenyl]-4-toluenesulfonamide] — 4.2-fold higher, 212 µM
- Cc1ccc(S(=O)(=O)Nc2ccc(C(=NOCc3ccccc3)c3ccccc3)cc2NS(=O)(=O)c2ccc(C)cc2)cc1 [Compound 22ii, N-[4-(benzyloxyimino-phenyl-methyl)-2-(4-toluenesulfonylamino)-phenyl]-4-toluenesulfonamide] — within 1.5-fold, 64 µM
- COc1ccc(Oc2ccc(NS(=O)(=O)CCc3cccc4ccccc34)c(NS(=O)(=O)c3ccc(C)cc3)c2)cc1 [Compound 22y, N-[5-(4-methoxy-phenoxy)-2-(2-naphthalen-1-yl-ethanesulfonylamino)-phenyl]-4-toluenesulfonamide] — 2.5-fold lower, 20 µM

same assay, conditions: Table 3; compound at 15 μg/mL; read-out: % Inhibition at 15 μg/mL Src (%)

Point of comparison: `Cc1ccc(S(=O)(=O)Nc2ccc(C(=O)NCC(C)(C)CO)cc2NS(=O)(=O)c2ccc(C)cc2)cc1` [Compound 22f, N-(3-hydroxy-2,2-dimethyl-propyl)-3,4-bis-(4-toluenesulfonylamino)-benzamide], inhibition at 15 µg/mL 3%. Against it:
- Cc1ccc(S(=O)(=O)Nc2ccc(C(=O)Nc3cccnc3)cc2NS(=O)(=O)c2ccc(C)cc2)cc1 [Compound 22d, N-pyridin-3-yl-3,4-bis-(4-toluenesulfonylamino)-benzamide] — lower, 0%
- COc1ccc(Oc2ccc(NS(=O)(=O)c3ccc(C)cc3)c(NS(=O)(=O)c3cn(C)cn3)c2)cc1 [Compound 22o, N-[5-(4-methoxy-phenoxy)-2-(4-toluenesulfonylamino)-phenyl]-1-methyl-1H-imidazole-4-sulfonamide] — lower, 0%
- COc1ccc(CCNC(=O)c2ccc(NS(=O)(=O)c3ccc(C)cc3)c(NS(=O)(=O)c3ccc(C)cc3)c2)cc1 [Compound 22b, N-[2-(4-methoxy-phenyl)-ethyl]-3,4-bis-(4-toluenesulfonylamino)-benzamide] — higher, 25%
- Cc1ccc(S(=O)(=O)Nc2ccc(NS(=O)(=O)c3cccs3)cc2NS(=O)(=O)c2ccc(C)cc2)cc1 [Compound 22i, N-[3,4-bis-(4-toluenesulfonylamino)-phenyl]-thiophene-2-sulfonamide] — higher, 26%
- COc1ccc(Oc2ccc(NS(=O)(=O)c3ccc(C)cc3)c(NS(C)(=O)=O)c2)cc1 [Compound 22m, N-[2-methanesulfonylamino-4-(4-methoxy-phenoxy)-phenyl]-4-toluenesulfonamide] — higher, 22%

same assay, conditions: Table 3; compound at 50 μg/mL (starred values); read-out: % Inhibition Src (%), * = assayed at 50 μg/mL

Compound `Cc1ccc(S(=O)(=O)Nc2ccc(OCCCCCO)cc2NS(=O)(=O)c2ccc(C)cc2)cc1` [Compound 12s, N-[4-(5-hydroxy-pentyloxy)-2-(4-toluenesulfonylamino)-phenyl]-4-toluenesulfonamide] has an inhibition at 50 µg/mL of 9%.

same assay, conditions: Table 4, Formula III compounds; NI = no inhibition at 100 μg/mL

Point of comparison: `COc1ccc(Oc2cc(NS(=O)(=O)c3ccc(C)cc3)c(NS(=O)(=O)c3ccc(C)cc3)cc2C)cc1` [Compound 37, N-[4-(4-methoxy-phenoxy)-5-methyl-2-(4-toluenesulfonylamino)-phenyl]-4-toluenesulfonamide], IC50 118 µM. Against it:
- Cc1ccc(S(=O)(=O)Nc2cc(F)c(SCc3ccccc3Cl)cc2NS(=O)(=O)c2ccc(C)cc2)cc1 [Compound 38c, N-[4-(2-chloro-benzylsulfanyl)-5-fluoro-2-(4-toluenesulfonylamino)-phenyl]-4-toluenesulfonamide] — 54-fold lower, 2.2 µM
- Cc1ccc(S(=O)(=O)Nc2cc(F)c(S(=O)(=O)Cc3ccccc3Cl)cc2NS(=O)(=O)c2ccc(C)cc2)cc1 [Compound 38d, N-[4-(2-chloro-phenylmethanesulfonyl)-5-fluoro-2-(4-toluenesulfonylamino)-phenyl]-4-toluenesulfonamide] — 9.1-fold lower, 13 µM

same assay, conditions: Table 6, Formula V compounds; compound at 15 μg/mL; read-out: % Inhibition at 15 μg/mL Src (%)

Point of comparison: `COc1ccc(Oc2ccc3c(c2)NS(=O)(=O)N3S(=O)(=O)c2ccc(C)cc2)cc1` [Compound 72f, 5-(4-methoxy-phenoxy)-1-(4-toluenesulfonyl)-1,3-dihydro-benzo[1,2,5]thiadiazole 2,2-dioxide], inhibition at 15 µg/mL 14%. Against it:
- COc1ccc(Oc2ccc3[nH]c(=O)n(S(=O)(=O)c4ccc(C)cc4)c3c2)cc1 [Compound 72a, 6-(4-methoxy-phenoxy)-1-(4-toluenesulfonyl)-1,3-dihydro-benzoimidazol-2-one] — higher, 21%

same assay, conditions: compound at 15 μg/mL; read-out: % Inhibition at 15 μg/mL Src %

Point of comparison: `COc1ccc(Oc2ccc(N)c(NS(=O)(=O)c3ccc(C)cc3)c2)cc1` [Compound 71a, N-[2-amino-5-(4-methoxy-phenoxy)-phenyl]-4-toluenesulfonamide], inhibition at 15 µg/mL 13%. Against it:
- Cc1ccc(C(=O)Nc2cc(NCC3CCCCC3)c([N+](=O)[O-])cc2NC(=O)c2ccc(C)cc2)cc1 [Compound 71aa, N-[4-(cyclohexylmethyl-amino)-5-nitro-2-(4-toluoylamino)-phenyl]-4-toluamide] — lower, 0%
- COc1ccc(Oc2cc(N)c(NS(=O)(=O)c3ccc(C)cc3)cc2[N+](=O)[O-])cc1 [Compound 71cc, N-[2-amino-4-(4-methoxy-phenoxy)-5-nitro-phenyl]-4-toluenesulfonamide] — higher, 15%
- Nc1cc(SCc2ccccc2Cl)c([N+](=O)[O-])cc1NS(=O)(=O)c1ccc(Cl)c2nonc12 [Compound 71ll, N-[2-amino-4-(2-chloro-benzylsulfanyl)-5-nitro-phenyl]-7-chloro-benzo[1,2,5]oxadiazole-4-sulfonamide] — higher, 26%
- CCc1ccc(NS(=O)(=O)c2ccc(OC)cc2NS(=O)(=O)c2ccc(C)cc2)cc1 [Compound 71mm, N-(4-ethyl-phenyl)-4-methoxy-2-(4-toluenesulfonylamino)-benzenesulfonamide] — higher, 19%
- COc1ccc(Oc2ccc(NC(=O)Cc3ccccc3)c(NS(=O)(=O)c3ccc(C)cc3)c2)cc1 [Compound 71s, N-[4-(4-methoxy-phenoxy)-2-(4-toluenesulfonylamino)-phenyl]-2-phenyl-acetamide] — lower, 10%
- Cc1ccc(S(=O)(=O)Nc2ccc(S(=O)(=O)Cc3ccccc3Cl)cc2NS(=O)(=O)c2ccc(C)cc2)cc1 [Compound 71nn, N-[4-(2-chloro-phenylmethanesulfonyl)-2-(4-toluenesulfonylamino)-phenyl]-4-toluenesulfonamide] — higher, 46%
- COc1ccc(Oc2ccc(N)c(N(C)S(=O)(=O)c3ccc(C)cc3)c2)cc1 [Compound 71t, N-[2-amino-5-(4-methoxy-phenoxy)-phenyl]-N-methyl-4-toluenesulfonamide] — lower, 0%
- COc1ccc(Oc2ccc(NCc3ccc4ccccc4n3)c(NS(=O)(=O)c3ccc(C)cc3)c2)cc1 [Compound 71g, N-{5-(4-methoxy-phenoxy)-2-[(quinolin-2-ylmethyl)-amino]-phenyl}-4-toluenesulfonamide] — lower, 10%

same assay, conditions: poly E4Y / 32P-ATP; Formula IV compounds

Compound `COc1ccc(Oc2ccc(NCc3cc4ccccc4o3)c(NS(=O)(=O)c3ccc(C)cc3)c2)cc1` [Compound 71f, N-[2-[(benzofuran-2-ylmethyl)-amino]-5-(4-methoxy-phenoxy)-phenyl]-4-toluenesulfonamide] has an IC50 of 627 µM.
